Results published in ChEMBL document CHEMBL5465560, “Selectivity Literature for EUbOPEN Chemogenomic Library” (2024).
Values belong to the compound of their own block, whether it stands above or below them.

Columns and labels:
[1] = biological target: T1, Serine/threonine-protein kinase Nek2 (Homo sapiens) (UniProt P51955); assay: Selectivity interaction (Millipore kinase profiler) EUB0000124b NEK2; conditions: at 10 µM
T1 sequence (whole entry): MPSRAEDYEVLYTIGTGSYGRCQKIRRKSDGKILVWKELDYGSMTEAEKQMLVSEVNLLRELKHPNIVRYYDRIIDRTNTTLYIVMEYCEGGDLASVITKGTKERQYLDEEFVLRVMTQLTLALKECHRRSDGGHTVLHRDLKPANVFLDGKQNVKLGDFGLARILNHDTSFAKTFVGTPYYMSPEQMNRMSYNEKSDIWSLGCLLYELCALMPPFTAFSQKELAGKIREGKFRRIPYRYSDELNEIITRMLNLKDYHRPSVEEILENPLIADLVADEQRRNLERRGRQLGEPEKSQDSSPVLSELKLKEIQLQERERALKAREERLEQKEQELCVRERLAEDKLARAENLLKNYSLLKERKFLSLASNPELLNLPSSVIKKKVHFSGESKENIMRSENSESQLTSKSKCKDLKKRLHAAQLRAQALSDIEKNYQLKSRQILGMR

[2] = biological target: Serine/threonine-protein kinase 10 (Homo sapiens) (UniProt O94804); assay: Selectivity interaction (ActivX KiNativ screen (kinase selectivity in THP-1 cell lysates)) EUB0000639a STK10; type: subcellular; conditions: lysate, at 5 µM
Chain of Serine/threonine-protein kinase 10 (Homo sapiens) (O94804 whole entry, looked up): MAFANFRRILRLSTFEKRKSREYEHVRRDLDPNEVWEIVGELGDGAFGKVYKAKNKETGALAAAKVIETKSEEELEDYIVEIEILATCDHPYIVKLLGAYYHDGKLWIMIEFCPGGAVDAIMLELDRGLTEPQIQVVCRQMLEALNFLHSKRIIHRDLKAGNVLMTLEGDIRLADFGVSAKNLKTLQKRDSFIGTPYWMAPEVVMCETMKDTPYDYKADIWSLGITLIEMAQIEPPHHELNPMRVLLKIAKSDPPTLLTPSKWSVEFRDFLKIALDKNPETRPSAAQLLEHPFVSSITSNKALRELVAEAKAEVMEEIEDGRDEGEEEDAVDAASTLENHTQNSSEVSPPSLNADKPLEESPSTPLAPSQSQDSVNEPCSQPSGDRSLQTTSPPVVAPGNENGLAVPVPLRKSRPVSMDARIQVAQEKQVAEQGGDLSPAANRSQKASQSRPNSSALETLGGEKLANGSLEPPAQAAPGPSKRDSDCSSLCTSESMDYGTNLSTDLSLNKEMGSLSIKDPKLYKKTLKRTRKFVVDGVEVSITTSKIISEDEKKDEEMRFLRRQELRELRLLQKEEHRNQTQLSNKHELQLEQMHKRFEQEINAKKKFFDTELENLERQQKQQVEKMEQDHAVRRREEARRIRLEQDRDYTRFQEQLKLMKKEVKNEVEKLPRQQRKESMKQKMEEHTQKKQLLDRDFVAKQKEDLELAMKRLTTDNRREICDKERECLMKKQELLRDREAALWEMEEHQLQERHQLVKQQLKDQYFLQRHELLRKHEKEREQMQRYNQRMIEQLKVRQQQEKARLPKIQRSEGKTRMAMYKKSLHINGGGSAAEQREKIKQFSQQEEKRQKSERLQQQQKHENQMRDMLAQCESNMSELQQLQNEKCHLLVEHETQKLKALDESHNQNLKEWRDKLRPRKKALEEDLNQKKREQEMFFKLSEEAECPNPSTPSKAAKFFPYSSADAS

[3] = biological target: MAP kinase-interacting serine/threonine-protein kinase 2 (Homo sapiens, UniProt Q9HBH9); assay: Selectivity interaction (Kinase panel (Invitrogen)) EUB0000639a MKNK2; conditions: at 200 nM
Chain of MAP kinase-interacting serine/threonine-protein kinase 2 (Q9HBH9 whole entry, looked up): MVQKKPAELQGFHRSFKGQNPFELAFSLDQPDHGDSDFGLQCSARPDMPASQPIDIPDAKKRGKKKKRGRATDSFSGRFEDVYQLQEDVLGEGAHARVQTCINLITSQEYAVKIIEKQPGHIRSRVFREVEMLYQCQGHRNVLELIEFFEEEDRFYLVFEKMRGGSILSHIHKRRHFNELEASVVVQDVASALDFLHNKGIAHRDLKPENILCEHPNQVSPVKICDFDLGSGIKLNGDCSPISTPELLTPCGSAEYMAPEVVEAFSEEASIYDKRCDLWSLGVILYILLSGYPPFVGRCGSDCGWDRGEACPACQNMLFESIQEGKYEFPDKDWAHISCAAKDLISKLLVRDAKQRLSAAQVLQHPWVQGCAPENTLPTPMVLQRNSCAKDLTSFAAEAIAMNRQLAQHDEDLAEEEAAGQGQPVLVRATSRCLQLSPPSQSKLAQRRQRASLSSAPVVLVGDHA

[4] = biological target: Serine/threonine-protein kinase NIM1 (Homo sapiens, UniProt Q8IY84); assay: Selectivity interaction (KinomeScan (DiscoverX)) EUB0000695a NIM1K; conditions: at 100 nM
Chain of Serine/threonine-protein kinase NIM1 (Q8IY84 whole entry): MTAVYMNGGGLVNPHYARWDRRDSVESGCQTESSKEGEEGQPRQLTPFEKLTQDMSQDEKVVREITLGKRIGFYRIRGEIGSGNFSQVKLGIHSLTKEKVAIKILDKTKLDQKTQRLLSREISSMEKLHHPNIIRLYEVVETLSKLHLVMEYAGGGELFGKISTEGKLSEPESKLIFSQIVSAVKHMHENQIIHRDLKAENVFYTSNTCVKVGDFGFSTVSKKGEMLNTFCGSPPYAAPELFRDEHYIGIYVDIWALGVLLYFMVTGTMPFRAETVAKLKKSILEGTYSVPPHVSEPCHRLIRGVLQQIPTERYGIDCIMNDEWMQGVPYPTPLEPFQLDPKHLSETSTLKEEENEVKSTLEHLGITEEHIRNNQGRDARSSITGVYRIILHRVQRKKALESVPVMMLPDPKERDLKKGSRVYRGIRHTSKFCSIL

[5] = biological target: Macrophage colony-stimulating factor 1 receptor (Homo sapiens) (UniProt P07333); assay: Selectivity interaction (KinomeScan (DiscoverX)) EUB0001079a CSF1R; conditions: at 1 µM
Chain of Macrophage colony-stimulating factor 1 receptor (Homo sapiens) (P07333 whole entry, canonical isoform): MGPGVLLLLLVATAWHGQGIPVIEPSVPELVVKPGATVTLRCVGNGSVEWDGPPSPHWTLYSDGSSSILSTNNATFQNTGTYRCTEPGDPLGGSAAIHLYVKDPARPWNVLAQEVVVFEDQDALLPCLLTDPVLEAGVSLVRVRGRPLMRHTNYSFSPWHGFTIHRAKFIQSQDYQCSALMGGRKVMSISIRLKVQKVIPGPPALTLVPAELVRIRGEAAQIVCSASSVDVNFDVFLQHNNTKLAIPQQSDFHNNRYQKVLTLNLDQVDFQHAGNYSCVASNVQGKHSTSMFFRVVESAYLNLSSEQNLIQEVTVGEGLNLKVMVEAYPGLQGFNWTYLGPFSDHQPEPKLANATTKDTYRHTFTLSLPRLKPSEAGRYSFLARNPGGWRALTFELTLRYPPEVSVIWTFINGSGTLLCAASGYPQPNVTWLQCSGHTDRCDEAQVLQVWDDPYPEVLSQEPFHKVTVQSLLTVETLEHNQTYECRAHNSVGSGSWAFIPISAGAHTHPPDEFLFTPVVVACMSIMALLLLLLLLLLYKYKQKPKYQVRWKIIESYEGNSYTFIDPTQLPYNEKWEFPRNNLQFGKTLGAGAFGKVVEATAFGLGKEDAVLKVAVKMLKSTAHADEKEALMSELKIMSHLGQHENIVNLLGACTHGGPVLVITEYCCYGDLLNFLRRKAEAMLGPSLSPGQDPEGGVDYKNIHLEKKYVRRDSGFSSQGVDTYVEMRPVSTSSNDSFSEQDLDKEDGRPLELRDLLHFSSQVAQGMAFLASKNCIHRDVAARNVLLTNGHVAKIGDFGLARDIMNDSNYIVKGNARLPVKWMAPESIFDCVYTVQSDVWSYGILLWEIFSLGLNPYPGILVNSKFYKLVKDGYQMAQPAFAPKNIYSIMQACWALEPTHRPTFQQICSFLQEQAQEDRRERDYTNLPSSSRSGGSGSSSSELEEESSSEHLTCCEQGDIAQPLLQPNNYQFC

[6] = biological target: Phosphatidylinositol 4,5-bisphosphate 3-kinase catalytic subunit gamma isoform (Homo sapiens) (UniProt P48736); assay: Selectivity interaction (KinomeScan (DiscoverX)) EUB0000045b PIK3CG
Chain of Phosphatidylinositol 4,5-bisphosphate 3-kinase catalytic subunit gamma isoform (Homo sapiens) (P48736 whole entry, looked up, canonical isoform): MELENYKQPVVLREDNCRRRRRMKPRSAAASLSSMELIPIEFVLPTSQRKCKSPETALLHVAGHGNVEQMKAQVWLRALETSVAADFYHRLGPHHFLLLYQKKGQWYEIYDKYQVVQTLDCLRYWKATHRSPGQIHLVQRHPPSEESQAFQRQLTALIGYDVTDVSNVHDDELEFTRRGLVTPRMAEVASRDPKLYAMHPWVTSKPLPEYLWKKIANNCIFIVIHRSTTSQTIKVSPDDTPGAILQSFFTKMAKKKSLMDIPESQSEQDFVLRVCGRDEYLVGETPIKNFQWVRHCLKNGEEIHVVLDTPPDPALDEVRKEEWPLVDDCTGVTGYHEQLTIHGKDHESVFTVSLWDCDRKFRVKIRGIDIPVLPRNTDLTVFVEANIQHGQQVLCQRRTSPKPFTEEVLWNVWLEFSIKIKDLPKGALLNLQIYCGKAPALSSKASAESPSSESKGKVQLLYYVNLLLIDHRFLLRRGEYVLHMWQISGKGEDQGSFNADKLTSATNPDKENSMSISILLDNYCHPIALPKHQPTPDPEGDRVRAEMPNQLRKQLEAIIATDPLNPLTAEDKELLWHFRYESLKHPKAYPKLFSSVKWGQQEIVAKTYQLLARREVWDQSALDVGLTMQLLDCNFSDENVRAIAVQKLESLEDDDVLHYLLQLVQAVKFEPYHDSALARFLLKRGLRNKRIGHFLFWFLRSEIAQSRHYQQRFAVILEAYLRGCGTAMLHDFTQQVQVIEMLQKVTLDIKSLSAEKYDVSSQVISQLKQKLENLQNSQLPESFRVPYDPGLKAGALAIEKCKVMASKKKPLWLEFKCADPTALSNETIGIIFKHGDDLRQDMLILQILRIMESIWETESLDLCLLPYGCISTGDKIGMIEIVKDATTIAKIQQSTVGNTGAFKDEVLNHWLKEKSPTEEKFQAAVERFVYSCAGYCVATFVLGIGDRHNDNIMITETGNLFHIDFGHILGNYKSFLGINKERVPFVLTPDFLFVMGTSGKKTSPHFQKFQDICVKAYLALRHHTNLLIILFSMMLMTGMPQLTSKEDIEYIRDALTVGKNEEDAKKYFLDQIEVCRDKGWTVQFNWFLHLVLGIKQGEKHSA

[7] = biological target: T2, Protein kinase C iota type (Homo sapiens) (UniProt P41743); assay: Selectivity interaction (KinomeScan (DiscoverX)) EUB0000045b PRKCI
T2 sequence (whole entry): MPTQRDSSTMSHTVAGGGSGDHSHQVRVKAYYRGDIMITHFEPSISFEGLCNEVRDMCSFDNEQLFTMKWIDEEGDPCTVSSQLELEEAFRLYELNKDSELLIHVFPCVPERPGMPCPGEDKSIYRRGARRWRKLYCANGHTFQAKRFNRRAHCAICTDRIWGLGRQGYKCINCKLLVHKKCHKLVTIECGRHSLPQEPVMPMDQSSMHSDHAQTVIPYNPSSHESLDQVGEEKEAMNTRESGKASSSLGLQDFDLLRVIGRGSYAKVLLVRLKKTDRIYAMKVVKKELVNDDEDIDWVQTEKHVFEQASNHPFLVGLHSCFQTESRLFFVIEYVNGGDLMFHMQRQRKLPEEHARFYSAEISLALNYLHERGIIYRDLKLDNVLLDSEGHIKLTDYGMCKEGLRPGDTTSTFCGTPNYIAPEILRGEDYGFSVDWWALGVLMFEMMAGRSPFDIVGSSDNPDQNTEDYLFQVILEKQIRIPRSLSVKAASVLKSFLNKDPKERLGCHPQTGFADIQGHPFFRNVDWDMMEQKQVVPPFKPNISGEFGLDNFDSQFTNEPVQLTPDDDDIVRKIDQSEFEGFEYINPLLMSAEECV

[8] = biological target: Serine/threonine-protein kinase tousled-like 2 (Homo sapiens) (UniProt Q86UE8); assay: Selectivity interaction (KinomeScan (DiscoverX)) EUB0000655a TLK2; conditions: at 10 µM
[9] = biological target: T3, Cyclin-dependent kinase 11A (Homo sapiens) (UniProt Q9UQ88); assay: Selectivity interaction (KinomeScan (DiscoverX)) EUB0000618a CDK11A; conditions: at 10 µM
T3 sequence (whole entry): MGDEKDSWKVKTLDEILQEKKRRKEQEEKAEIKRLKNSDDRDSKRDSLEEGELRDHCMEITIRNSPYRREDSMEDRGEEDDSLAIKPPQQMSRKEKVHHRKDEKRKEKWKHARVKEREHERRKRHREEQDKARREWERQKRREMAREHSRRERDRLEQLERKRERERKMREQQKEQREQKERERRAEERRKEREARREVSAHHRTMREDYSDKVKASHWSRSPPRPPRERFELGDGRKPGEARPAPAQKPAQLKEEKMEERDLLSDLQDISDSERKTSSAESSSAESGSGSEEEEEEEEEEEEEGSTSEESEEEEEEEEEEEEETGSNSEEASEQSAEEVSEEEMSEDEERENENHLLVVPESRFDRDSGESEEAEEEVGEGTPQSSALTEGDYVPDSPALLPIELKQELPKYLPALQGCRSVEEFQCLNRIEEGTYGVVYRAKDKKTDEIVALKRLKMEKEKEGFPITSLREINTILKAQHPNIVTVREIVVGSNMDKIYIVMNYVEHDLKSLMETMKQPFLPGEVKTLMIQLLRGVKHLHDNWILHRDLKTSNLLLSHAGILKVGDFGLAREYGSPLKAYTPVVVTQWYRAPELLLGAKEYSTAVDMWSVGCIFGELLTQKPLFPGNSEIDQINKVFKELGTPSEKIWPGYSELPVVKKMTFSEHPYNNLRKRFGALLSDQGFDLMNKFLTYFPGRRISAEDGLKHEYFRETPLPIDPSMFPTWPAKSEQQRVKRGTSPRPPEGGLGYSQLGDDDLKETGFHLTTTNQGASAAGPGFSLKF

Focal adhesion kinase 1 = Focal adhesion kinase 1 (Homo sapiens, UniProt Q05397); assay: Selectivity interaction (KinomeScan (DiscoverX)) EUB0000607a PTK2; conditions: at 10 µM
[10] = biological target: Serine/threonine-protein kinase MARK1 (Homo sapiens) (UniProt Q9P0L2); assay: Selectivity interaction (Kinase panel (KiNativ target engagement assay in Jurkat cells)) EUB0001635a MARK1; type: cell-based; conditions: at 1 µM
Chain of Serine/threonine-protein kinase MARK1 (Homo sapiens) (Q9P0L2 whole entry, looked up): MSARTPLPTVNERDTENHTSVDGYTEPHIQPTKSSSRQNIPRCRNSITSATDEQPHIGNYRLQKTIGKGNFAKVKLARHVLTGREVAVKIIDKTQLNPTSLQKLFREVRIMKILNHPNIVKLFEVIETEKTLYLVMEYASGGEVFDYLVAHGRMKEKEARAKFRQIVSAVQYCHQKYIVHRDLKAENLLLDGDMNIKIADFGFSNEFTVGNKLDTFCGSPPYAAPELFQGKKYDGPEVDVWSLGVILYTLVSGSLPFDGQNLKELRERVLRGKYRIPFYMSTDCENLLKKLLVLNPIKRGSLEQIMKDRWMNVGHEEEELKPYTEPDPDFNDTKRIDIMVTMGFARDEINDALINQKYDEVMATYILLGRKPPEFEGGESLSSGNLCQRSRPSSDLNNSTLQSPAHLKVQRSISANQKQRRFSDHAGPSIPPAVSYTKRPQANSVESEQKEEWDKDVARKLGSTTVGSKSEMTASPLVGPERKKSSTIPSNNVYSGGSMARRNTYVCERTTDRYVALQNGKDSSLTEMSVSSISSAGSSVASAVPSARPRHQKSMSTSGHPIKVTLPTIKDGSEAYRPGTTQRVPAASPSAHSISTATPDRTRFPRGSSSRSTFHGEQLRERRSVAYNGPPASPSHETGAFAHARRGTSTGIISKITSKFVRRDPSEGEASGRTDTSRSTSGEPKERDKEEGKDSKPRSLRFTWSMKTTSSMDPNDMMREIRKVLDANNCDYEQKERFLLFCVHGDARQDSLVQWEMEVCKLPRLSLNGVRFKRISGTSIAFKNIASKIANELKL

- % of control [1]: 119%
SMILES: CC(=O)Nc1cccc(-n2c(=O)n(C3CC3)c(=O)c3c(Nc4ccc(I)cc4F)n(C)c(=O)c(C)c32)c1

- % of inhibition [2]: -16.6%
- % of inhibition [3]: 86%
SMILES: CC[C@@H]1[C@H](F)C(=O)N[C@@H]1COc1nccc2cc(C(N)=O)c(OC)cc12 [ZIMLOVISERTIB]

SMILES: Cc1cc(F)c(C(=O)Nc2cccc(-c3nncn3C(C)C)n2)cc1-n1cnc(C2CC2)c1
- % of control [4]: 84%

SMILES: Nc1cnc(N2CCc3cc(S(=O)(=O)Nc4c(F)cc(Cl)cc4F)cc(N4CCCC4=O)c32)nc1 [TP-020n]
- % of control [5]: 100%

SMILES: C=CC(=O)Nc1cc(-n2c(=O)ccc3cnc4ccc(-c5ccc(NS(C)(=O)=O)cc5)cc4c32)ccc1C
- % of control ([6]; at 1 µM): 2.8%
- % of control ([6]; at 10 µM): 0%
- % of control ([7]; at 1 µM): 84%
- % of control ([7]; at 10 µM): 64%

SMILES: CN(C)CCOc1ccc(-c2nc(-c3ccncc3)c(-c3ccc4c(c3)CC/C4=N\O)[nH]2)cc1
- % of control [8]: 86%

SMILES: O[C@H]1CC[C@H](Nc2ncc3nc(Nc4c(F)cc(F)cc4F)n([C@H]4CCOC4)c3n2)CC1
- % of control [9]: 100%

SMILES: CNC(=O)Nc1ccc(-c2nc(N3CC4CCC(C3)O4)c3cnn(C4CCC5(CC4)OCCO5)c3n2)cc1
- % of control (Focal adhesion kinase 1): 78%

SMILES: C=CC(=O)Nc1ccc(C(=O)Nc2[nH]nc3c2CN(C(=O)N[C@H](CN(C)C)c2ccccc2)C3(C)C)cc1
- % of engagement [10]: 8.7%
